Values quoted from earlier work in patent publication US9532987B2, “Use of a combination of a MEK inhibitor and an ERK inhibitor for treatment of hyperproliferative diseases” (Genentech, Inc., priority 2013, dated 2017).

How the values were obtained:
[1] = system: tumor cells bearing activating Ras mutations
[2] = system: tumor cells bearing activating B-RAF mutations

Row | SMILES | inhibition of tumor cell growth [1] | inhibition of tumor cell growth [2]
1 | O=C(NOCCO)c1ccc2cncn2c1Nc1ccc(I)cc1F [GDC-0623, 5-[(2-fluoro-4-iodophenyl)amino]-N-(2-hydroxyethoxy)-imidazo[1,5-a]pyridine-6-carboxamide] | more activity | effective
2 | O=C(c1ccc(F)c(F)c1Nc1ccc(I)cc1F)N1CC(O)([C@@H]2CCCCN2)C1 [GDC-0973, [3,4-difluoro-2-[(2-fluoro-4-iodophenyl)amino]phenyl][3-hydroxy-3-[(2S)-2-piperidinyl]-1-azetidinyl]methanone] | effective | more activity
